ChEMBL document CHEMBL5321207, “Design, synthesis and biological characterization of novel activators of the TrkB neurotrophin receptor” (Eur J Med Chem, 2023)
Active and inactive are the calls of the source. No cut-off for these calls is given here.

Tests used:
[1] = Chromatographic hydrophobicity index of compound at pH 7.4 by HPLC analysis; assay type: physicochemical
SH-SY5Y [2] = assay: Induction of neurite outgrowth in retinoid acid-treated human SH-SY5Y cells at 1000 nM incubated for 2 days by fluorescence microscopy relative to retinoid acid; assay type: functional; conditions: time 2 day
[3] = Chromatographic hydrophobicity index, log D of compound at pH 7.4 by HPLC analysis; assay type: physicochemical; conditions: buffer
SH-SY5Y [4] = assay: Induction of neurite outgrowth in retinoid acid-treated human SH-SY5Y cells at 100 nM incubated for 2 days by fluorescence microscopy relative to retinoid acid; assay type: functional; conditions: time 2 day
SH-SY5Y [5] = assay: Induction of neurite outgrowth in retinoid acid-treated human SH-SY5Y cells at 10 nM incubated for 2 days by fluorescence microscopy relative to retinoid acid; assay type: functional; conditions: time 2 day
Cortical neurone [6] = assay: Neurotoxicity against Sprague-Dawley rat primary cortical neurons at 1 uM incubated for 24 hrs by HCS analysis; assay type: functional, cell-based
NIH3T3 = assay: Cytotoxicity against serum-starved mouse NIH3T3 cells transfected with TrkB assessed as cell death at 1 uM measured after 24 hrs by CellTox green dye/Hoechst staining based microscopy; assay type: toxicity; conditions: nih3t3, 24 h
[7] = system: Primary spinal motor neuron; assay: (§1) Neuroprotective activity against glutamate-treated Wistar rat primary spinal motor neurons assessed as decrease in TDP43 accumulation pretreated for 1 hr followed by glutamate treatment for 20 mins and subsequent washout of compound and glutamate and re-treatment of compound for 48 hrs by imaging analysis; assay type: functional, cell-based; conditions: dose 0.5-1000 nM, time 49.33 hrs
[8] = system: Primary spinal motor neuron; assay: Neuroprotective activity against glutamate-treated Wistar rat primary spinal motor neurons assessed as neuronal survival pretreated for 1 hr followed by glutamate treatment for 20 mins and subsequent washout of compound and glutamate and re-treatment of compound for 48 hrs by imaging analysis; assay type: functional, cell-based; conditions: dose 0.5-1000 nM, time 49.33 hrs
[9] = molecular target: BDNF/NT-3 growth factors receptor (Mus musculus) (UniProt P15209); assay: Induction of TrkB phosphorylation transfected in mouse NIH3T3 cells at 1 uM incubated for 20 mins followed by serum deprivation for 6 hrs by Western blot analysis; assay type: cell-based; conditions: filed as activator, time 6.33 hrs
Chain of BDNF/NT-3 growth factors receptor (Mus musculus) (P15209 whole entry): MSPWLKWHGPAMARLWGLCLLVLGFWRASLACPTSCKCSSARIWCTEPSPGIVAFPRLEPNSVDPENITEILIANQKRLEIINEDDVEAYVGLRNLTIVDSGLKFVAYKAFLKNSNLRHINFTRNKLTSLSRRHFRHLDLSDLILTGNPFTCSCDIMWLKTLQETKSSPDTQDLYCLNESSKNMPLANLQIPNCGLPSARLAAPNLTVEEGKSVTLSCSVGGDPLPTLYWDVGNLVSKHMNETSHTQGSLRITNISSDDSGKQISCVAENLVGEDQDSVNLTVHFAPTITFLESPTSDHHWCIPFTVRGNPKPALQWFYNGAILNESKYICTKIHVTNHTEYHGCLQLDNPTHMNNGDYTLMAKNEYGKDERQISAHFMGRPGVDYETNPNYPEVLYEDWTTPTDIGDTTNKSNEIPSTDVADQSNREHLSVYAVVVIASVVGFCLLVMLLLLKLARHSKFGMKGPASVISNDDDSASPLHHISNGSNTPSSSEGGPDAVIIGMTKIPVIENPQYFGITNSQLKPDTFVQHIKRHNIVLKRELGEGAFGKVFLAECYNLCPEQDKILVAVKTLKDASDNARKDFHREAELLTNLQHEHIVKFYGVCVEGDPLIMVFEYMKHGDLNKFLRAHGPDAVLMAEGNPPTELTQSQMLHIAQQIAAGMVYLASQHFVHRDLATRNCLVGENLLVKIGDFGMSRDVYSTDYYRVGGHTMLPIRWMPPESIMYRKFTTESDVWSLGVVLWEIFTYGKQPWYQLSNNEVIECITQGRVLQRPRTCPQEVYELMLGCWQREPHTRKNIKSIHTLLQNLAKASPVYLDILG

[10] = system: Primary spinal motor neuron; assay: as §1, with “increase” for “decrease”, “neurite network” for “TDP43 accumulation”; assay type: functional, cell-based; conditions: dose 0.5-1000 nM, time 49.33 hrs
[11] = molecular target: BDNF/NT-3 growth factors receptor (Mus musculus) (UniProt P15209); assay: Induction of TrkB phosphorylation in mouse primary cortical astrocytes assessed as Akt phosphorylation at 1 uM incubated for 20 mins followed by serum deprivation for 6 hrs by Western blot analysis; assay type: cell-based; conditions: Cortex, filed as activator, time 6.33 hrs
[12] = molecular target: BDNF/NT-3 growth factors receptor (Mus musculus) (UniProt P15209); assay: Induction of TrkB phosphorylation in mouse primary cortical astrocytes at 1 uM incubated for 20 mins followed by serum deprivation for 6 hrs by Western blot analysis; assay type: cell-based; conditions: Cortex, filed as activator, time 6.33 hrs
Cortical neurone [13] = assay: Neurotoxicity against Sprague-Dawley rat primary cortical neurons at 10 uM incubated for 24 hrs by HCS analysis; assay type: functional, cell-based
Cortical neurone [14] = assay: Neurotoxicity against Sprague-Dawley rat primary cortical neurons at 100 uM incubated for 24 hrs by HCS analysis; assay type: functional, cell-based
Hepatocyte = assay: Hepatotoxicity against mouse hepatocytes at 1 uM incubated for 24 hrs by HCS analysis; assay type: functional, cell-based

CHI [1] | chromatographic logD [3] | Activity [9] | Activity [11] | Activity [12] | SMILES | Activity (SH-SY5Y [2]) [%] | Activity (SH-SY5Y [4]) [%] | Activity (SH-SY5Y [5]) [%] | Activity (Cortical neurone [6]) | Activity (NIH3T3) | Activity [7] | Activity [8] | Activity [10] | Activity (Cortical neurone [13]) | Activity (Cortical neurone [14]) | Activity (Hepatocyte)
18.7 | -0.28 |  |  |  | O=C(NCCO)c1cc(C(=O)NCCO)cc(C(=O)NCCCN2CCOCC2)c1 | 122.77 | 127.21 | 121.11 | inactive |  |  |  |  |  |  | 
33.4 | 0.48 | Active | Active | Active | O=C(NCCO)c1cc(C(=O)NCCO)cc(C(=O)NCC2CCN(CC3CCCCC3)CC2)c1 | 113.54 | 181.13 | 183.59 |  | Non-Toxic | Dose-Dependent Effect | Dose-Dependent Effect | Dose-Dependent Effect |  |  | 
13.8 | -0.53 | Active | Active | Active | O=C(NCCO)c1cc(C(=O)NCCO)cc(C(=O)NCCO)c1 | 113.86 | 124.7 | 120.18 | inactive | Non-Toxic |  |  |  | inactive | inactive | 
19.5 | -0.24 |  |  |  | CC[C@H](C)[C@H](N)C(=O)NCCNC(=O)c1cc(C(=O)NCCO)cc(C(=O)NCCO)c1.Cl | 143.82 | 158.93 | 139.04 | inactive |  |  |  |  | inactive |  | 
18.1 | -0.31 |  | Active | Active | O=C(NCCO)c1cc(C(=O)NCCO)cc(C(=O)NCCN2CCOCC2)c1 | 114.91 | 107.68 | 90.19 | inactive |  |  |  |  |  |  | inactive
17.6 | -0.34 | Active |  |  | CCCN1CCC(CNC(=O)c2cc(C(=O)NCCO)cc(C(=O)NCCO)c2)CC1 | 104.04 | 102.23 | 97.67 | inactive | Non-Toxic |  |  |  | inactive | inactive | inactive
